PMC7990224 (PLoS Pathogens, 2021)
Where “and” joins values, the source holds several entries; their conditions need not be identical. Equal entries are not always repeated.

System: SARS-CoV-2 GFP/ΔN trVLP
Type: cell-based

Row | Compound | IC50
1 | CCC(CC)COC(=O)[C@H](C)N[P@](=O)(OC[C@H]1O[C@@](C#N)(c2ccc3c(N)ncnn23)[C@H](O)[C@@H]1O)Oc1ccccc1 [Remdesivir] | 0.0625 µM
2 | GC376 | 4.5 µM
3 | CC(C)c1nc(CN(C)C(=O)N[C@H](C(=O)N[C@@H](Cc2ccccc2)C[C@H](O)[C@H](Cc2ccccc2)NC(=O)OCc2cncs2)C(C)C)cs1 [Ritonavir] | 7.54 µM
4 | Cc1cccc(C)c1OCC(=O)N[C@@H](Cc1ccccc1)[C@@H](O)C[C@H](Cc1ccccc1)NC(=O)[C@H](C(C)C)N1CCCNC1=O [Lopinavir] | 8.7 µM and 8.75 µM
